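Interpolation was linear, between the two tested concentrations surrounding the appropriate level; five concentrations were tested over 48 hours in 96-well plates. GI50 marks 50% less growth.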 Calls of active or inactive are those of the source. Cut-off read from the data, not from the text of the source: active = GI50 up to about 1.1 µM and inactive = higher.
Key:
Experiment in all cases: growth of human tumour cells (NCI), 48 h
OVCAR-5 = system: OVCAR-5
SW-620 = system: SW-620
OVCAR-8 = system: OVCAR-8
A549 = system: A549
MDA-N = system: MDA-N
TK-10 = system: TK-10
SF-295 = system: SF-295
PC-3 = system: PC-3
HL-60 = system: HL-60
HCC 2998 = system: HCC 2998
OVCAR-3 = system: OVCAR-3
NCI-H23 = system: NCI-H23
SF-268 = system: SF-268
SNB-19 = system: SNB-19
HOP-62 = system: HOP-62
UACC-62 = system: UACC-62
NCI-H460 = system: NCI-H460
T47D = system: T47D

| Structure (SMILES) | GI50 (OVCAR-5) | GI50 (SW-620) | GI50 (OVCAR-8) | GI50 (A549) | GI50 (MDA-N) | GI50 (TK-10) | GI50 (SF-295) | GI50 (PC-3) | GI50 (HL-60) | GI50 (HCC 2998) | GI50 (OVCAR-3) | GI50 (NCI-H23) | GI50 (SF-268) | GI50 (SNB-19) | GI50 (HOP-62) | GI50 (UACC-62) | GI50 (NCI-H460) | GI50 (T47D) |
| --- | --- | --- | --- | --- | --- | --- | --- | --- | --- | --- | --- | --- | --- | --- | --- | --- | --- | --- |
| CC(=O)OCCOCn1c2c(c(=O)[nH]c1=O)CCC2 | > 100 µM (inactive) | > 100 µM (inactive) | > 100 µM (inactive) | > 100 µM (inactive) | > 100 µM (inactive) | > 100 µM (inactive) | > 100 µM (inactive) | > 100 µM (inactive) | > 100 µM (inactive) | > 100 µM (inactive) | > 100 µM (inactive) | > 100 µM (inactive) | > 100 µM (inactive) | 8.53 µM (inactive) | > 100 µM (inactive) | – | – | – |
| COC(=O)c1ccc(Cc2cc(Cc3ccc(C(=O)OC)cc3)cc(Cc3ccc(C(=O)OC)cc3)c2)cc1 | > 25 µM (inactive) | > 25 µM (inactive) | > 25 µM (inactive) | > 25 µM (inactive) | > 25 µM (inactive) | > 25 µM (inactive) | > 25 µM (inactive) | > 25 µM (inactive) | > 25 µM (inactive) | > 25 µM (inactive) | > 25 µM (inactive) | – | > 25 µM (inactive) | > 25 µM (inactive) | > 25 µM (inactive) | > 25 µM (inactive) | > 25 µM (inactive) | – |
| c1ccc(C2CC(N3CCOCC3)=Nc3ccccc3N2)cc1 (stereo not given) | > 100 µM (inactive) | > 100 µM (inactive) | > 100 µM (inactive) | > 100 µM (inactive) | > 100 µM (inactive) | > 100 µM (inactive) | > 100 µM (inactive) | > 100 µM (inactive) | > 100 µM (inactive) | – | > 100 µM (inactive) | > 100 µM (inactive) | > 100 µM (inactive) | > 100 µM (inactive) | > 100 µM (inactive) | > 100 µM (inactive) | > 100 µM (inactive) | – |
| Cc1nc2cn3c(c2c(=O)[nH]1)CCCCC3 | – | > 100 µM (inactive) | > 100 µM (inactive) | – | – | > 100 µM (inactive) | > 100 µM (inactive) | > 100 µM (inactive) | > 100 µM (inactive) | > 100 µM (inactive) | – | > 100 µM (inactive) | > 100 µM (inactive) | > 100 µM (inactive) | > 100 µM (inactive) | > 100 µM (inactive) | > 100 µM (inactive) | > 100 µM (inactive) |
| CC(C(=O)N1c2ccccc2Sc2ccccc21)N1c2ccccc2Sc2ccccc21 (stereo not given) | > 100 µM (inactive) | > 100 µM (inactive) | 97.1 µM (inactive) | > 100 µM (inactive) | > 100 µM (inactive) | > 100 µM (inactive) | 98.4 µM (inactive) | 97.5 µM (inactive) | 77.6 µM (inactive) | – | 55 µM (inactive) | 74.8 µM (inactive) | > 100 µM (inactive) | > 100 µM (inactive) | > 100 µM (inactive) | > 100 µM (inactive) | > 100 µM (inactive) | 46.1 µM (inactive) |
| O=C(CC(C(=O)c1ccsc1)c1ccc2c(c1)OCO2)c1ccccc1 (stereo not given) | > 100 µM (inactive) | > 100 µM (inactive) | > 100 µM (inactive) | 8.17 µM (inactive) | > 100 µM (inactive) | > 100 µM (inactive) | > 100 µM (inactive) | – | > 100 µM (inactive) | > 100 µM (inactive) | > 100 µM (inactive) | 0.209 µM (active) | > 100 µM (inactive) | – | > 100 µM (inactive) | > 100 µM (inactive) | 94 µM (inactive) | 51.6 µM (inactive) |
| O=C(c1cccc(F)c1F)N1CCc2c([nH]c3ccccc23)C1c1ccc2c(c1)OCO2 (stereo not given) | 30.1 µM (inactive) | 9.71 µM (inactive) | 31.3 µM (inactive) | 7.08 µM (inactive) | 2.42 µM (inactive) | 22.5 µM (inactive) | 3.09 µM (inactive) | 2.97 µM (inactive) | 3.4 µM (inactive) | – | 1.64 µM (inactive) | 11.7 µM (inactive) | 27.3 µM (inactive) | 7.76 µM (inactive) | 0.337 µM (active) | 5.24 µM (inactive) | 6.56 µM (inactive) | 10.6 µM (inactive) |
| COc1ccc(/C=C2\CCC(C)/C(=C\c3ccc(OC)c(OC)c3)C2=O)cc1OC (stereo not given) | 3.59 µM (inactive) | 6.59 µM (inactive) | 3.76 µM (inactive) | – | 5.87 µM (inactive) | 2.61 µM (inactive) | 5.36 µM (inactive) | 3.39 µM (inactive) | 1.73 µM (inactive) | – | 13.6 µM (inactive) | 3.94 µM (inactive) | 6.89 µM (inactive) | 11.2 µM (inactive) | – | 6.21 µM (inactive) | – | 3.35 µM (inactive) |
| CCOc1ccc(NCC2CC/C(=C\C=C\c3ccccc3)C2=O)cc1 (stereo not given) | 21.5 µM (inactive) | 5.83 µM (inactive) | 16.9 µM (inactive) | 42.1 µM (inactive) | – | 19.9 µM (inactive) | 26.5 µM (inactive) | 23.6 µM (inactive) | 17.8 µM (inactive) | 31.9 µM (inactive) | 18 µM (inactive) | 18 µM (inactive) | 16.4 µM (inactive) | 24 µM (inactive) | 29.9 µM (inactive) | 24.4 µM (inactive) | 32 µM (inactive) | 17.3 µM (inactive) |
| COc1ccc(-c2c(C#N)c(S)n(NS(=O)(=O)c3ccc(C)cc3)c(=O)c2C#N)cc1 | 16.7 µM (inactive) | 18.6 µM (inactive) | 20.2 µM (inactive) | 27.5 µM (inactive) | 17.6 µM (inactive) | 32.4 µM (inactive) | 30 µM (inactive) | 18.2 µM (inactive) | 11.1 µM (inactive) | 30.3 µM (inactive) | – | – | 23.4 µM (inactive) | 35.8 µM (inactive) | 29.6 µM (inactive) | 15.6 µM (inactive) | 32.6 µM (inactive) | – |
| O=C(CSCC(=O)N/N=C/c1cc(I)cc(I)c1O)N/N=C/c1cc(I)cc(I)c1O | 39.5 µM (inactive) | 13.6 µM (inactive) | 6.34 µM (inactive) | 27.4 µM (inactive) | – | 7.4 µM (inactive) | 13.6 µM (inactive) | 32.3 µM (inactive) | 6.18 µM (inactive) | 12.8 µM (inactive) | 27 µM (inactive) | 11.6 µM (inactive) | 4.34 µM (inactive) | 10.5 µM (inactive) | 9.27 µM (inactive) | 12.8 µM (inactive) | 25.6 µM (inactive) | 34.3 µM (inactive) |
| N#Cc1[nH]c(=S)[nH]c1N | > 100 µM (inactive) | > 100 µM (inactive) | > 100 µM (inactive) | > 100 µM (inactive) | – | > 100 µM (inactive) | > 100 µM (inactive) | > 100 µM (inactive) | > 100 µM (inactive) | > 100 µM (inactive) | > 100 µM (inactive) | > 100 µM (inactive) | > 100 µM (inactive) | > 100 µM (inactive) | > 100 µM (inactive) | > 100 µM (inactive) | > 100 µM (inactive) | – |
| CCCCc1ccc(Nc2nc(Cl)c3ncn(C4CC(Oc5ccc(C)cc5)C(COc5ccc(C)cc5)O4)c3n2)cc1 (stereo not given) | > 100 µM (inactive) | > 100 µM (inactive) | > 100 µM (inactive) | > 100 µM (inactive) | > 100 µM (inactive) | > 100 µM (inactive) | > 100 µM (inactive) | – | 89.9 µM (inactive) | 44.9 µM (inactive) | > 100 µM (inactive) | > 100 µM (inactive) | > 100 µM (inactive) | > 100 µM (inactive) | 75.2 µM (inactive) | > 100 µM (inactive) | – | > 100 µM (inactive) |
| O=C1/C(=C/c2ccccc2)N=C2Sc3c([nH]cnc3=O)N12 | > 100 µM (inactive) | > 100 µM (inactive) | > 100 µM (inactive) | > 100 µM (inactive) | – | > 100 µM (inactive) | > 100 µM (inactive) | > 100 µM (inactive) | 42.3 µM (inactive) | > 100 µM (inactive) | > 100 µM (inactive) | > 100 µM (inactive) | > 100 µM (inactive) | > 100 µM (inactive) | > 100 µM (inactive) | – | – | > 100 µM (inactive) |
| CC1(C)OC(CCC#N)CN1C(=O)OCc1ccccc1 (stereo not given) | > 100 µM (inactive) | > 100 µM (inactive) | > 100 µM (inactive) | > 100 µM (inactive) | > 100 µM (inactive) | > 100 µM (inactive) | > 100 µM (inactive) | > 100 µM (inactive) | > 100 µM (inactive) | > 100 µM (inactive) | > 100 µM (inactive) | > 100 µM (inactive) | – | 9.57 µM (inactive) | – | > 100 µM (inactive) | > 100 µM (inactive) | – |
| Brc1ccc2c3c1[C@H]1O[C@H]1c1cccc(c1-3)[C@@H]1O[C@H]21 | 20.2 µM (inactive) | – | 15.6 µM (inactive) | 22 µM (inactive) | 16.9 µM (inactive) | 17.7 µM (inactive) | 15.5 µM (inactive) | 16.8 µM (inactive) | – | – | – | 17.8 µM (inactive) | 17.7 µM (inactive) | 18 µM (inactive) | 14.8 µM (inactive) | 16.8 µM (inactive) | – | 10.3 µM (inactive) |
| Cc1cc2nc3n(c2cc1C)C(c1c(F)cccc1F)SC3 (stereo not given) | 19.2 µM (inactive) | 21.3 µM (inactive) | 33.3 µM (inactive) | 23.7 µM (inactive) | – | 46.8 µM (inactive) | 22.3 µM (inactive) | 17.7 µM (inactive) | – | 21.2 µM (inactive) | 35.3 µM (inactive) | 16.5 µM (inactive) | 27.6 µM (inactive) | 18.3 µM (inactive) | 23.9 µM (inactive) | > 10 µM (inactive) | 18.1 µM (inactive) | 57.8 µM (inactive) |
